17 compounds from patent US10676458B2, “Antidiabetic bicyclic compounds” (Merck Sharp & Dohme Corp., priority 2016, dated 2020) can be followed below.

The target in this assay is human GPR40 (Homo sapiens (Human), UniProt O14842). Kind of assay: Inositol Phosphate Turnover (IP1) Assay. To be noted: HEK cells stably expressing human GPR40; 60 min incubation; CisBio IP-One kit. The assay is classed as cell-based. Here is the method: Human GPR40 stable cell-lines were generated in HEK cells. The expression plasmids were transfected using lipofectamine (Life Technologies) following manufacturer's instructions. Stable cell-lines were generated following drug selection and single cell cloning.
Sequence of human GPR40 (O14842 whole entry): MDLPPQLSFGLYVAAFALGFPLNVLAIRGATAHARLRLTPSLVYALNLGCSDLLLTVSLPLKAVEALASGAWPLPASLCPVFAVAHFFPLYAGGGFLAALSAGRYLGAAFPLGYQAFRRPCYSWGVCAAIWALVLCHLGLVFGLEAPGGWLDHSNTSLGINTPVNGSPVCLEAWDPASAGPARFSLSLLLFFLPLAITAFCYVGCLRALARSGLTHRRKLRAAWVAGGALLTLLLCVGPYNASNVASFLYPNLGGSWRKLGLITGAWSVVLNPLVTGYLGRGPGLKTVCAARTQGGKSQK
The assay was performed in 384-well format. HEK cells stably expressing human GPR40 were plated at 7500 cells per well in growth medium (DMEM/10% fetal calf serum). Cell plates were then incubated 16 hours at 37 degrees in a 5% CO2 incubator. Measurement of Inositol Phosphate Turnover (IP1) was performed using the CisBio IP-One kit (Part number 62IPAPEB). After the 16 hour incubation, the growth media was removed by centrifugation using the BlueWasher (AusWasher GUI Ver. v1.0.1.8) Protocol #21-“Light Dry” and 10 ul of stimulation buffer (prepared as described in the kit) was added to each well. In a separate plate, compounds were diluted in DMSO (200-fold over the final concentration in the assay well) and 50 nl was acoustically transferred to the appropriate well in the assay cell plate. The plates were then incubated for 60 minutes at 37 degrees in a 5% CO2 incubator. 10 ul of detection buffer (also prepared as described in the IP-One kit) was added to each well and the plates were incubated at room temperature for 60 minutes in the dark. The plates were then read in a Perkin Elmer EnVision or equivalent reader able to measure FRET. Fluorescent ratio of emission at 665 and 620 nm was then converted to IP1 concentration by back calculating from an IP1 standard curve prepared at the time of the assay. Data was normalized to % activity using a reference compound and EC50s determined using a standard 4-paramter fit.
The compound `C[C@H](C(=O)O)[C@H](c1ccc2c(c1)NC(C1CCN(Cc3cc(C(F)(F)F)ccc3C(F)(F)F)CC1)CO2)C1CC1` (single isomer, unassigned) [Example 2, Sodium (2S,3S)-3-((R or S)-3-(1-(2,5-Bis(trifluoromethyl)-benzyl)piperidin-4-yl)-3,4-dihydro-2H-benzo[b][1,4]oxazin-6-yl)-3-cyclopropyl-2-methyl propanoate] had an EC50 of 388 nM.

`C[C@H](C(=O)O)[C@H](c1ccc2c(c1)NC(C1CCN(Cc3cc(C(F)(F)F)ccc3C(F)(F)F)CC1)CC2)C1CC1` (single isomer, unassigned) [Example 6, Sodium (2S,3R)-3-((R or S)-2-(1-(2,5-bis(trifluoromethyl)benzyl)piperidin-4-yl)-1,2,3,4-tetrahydroquinolin-7-yl)-3-cyclopropyl-2-methylpropanoate] yielded an EC50 of 35 nM.

Regarding `COc1ccc(F)c(-c2ccc(C3CCc4ccc([C@H](C5CC5)[C@H](C)C(=O)O)cc4N3)cc2)c1` (single isomer, unassigned) [Example 11, Sodium (2S,3R)-3-cyclopropyl-3-((R or S)-2-(2′-fluoro-5′-methoxy-[1,1′-biphenyl]-4-yl)-1,2,3,4-tetrahydroquinolin-7-yl)-2-methylpropanoate], it took 0.79 nM to reach a half-maximal effect (EC50).

Consider `COc1ccc(F)c(-c2ccc(C3CCc4ccc([C@H](C5CC5)[C@H](C)C(=O)O)cc4N3)cc2)c1` (single isomer, unassigned) [Example 12, (2S,3R)-3-cyclopropyl-3-((S or R)-2-(2′-fluoro-5′-methoxy-[1,1′-biphenyl]-4-yl)-1,2,3,4-tetrahydroquinolin-7-yl)-2-methylpropanoic acid], for which the midpoint of the response, the EC50, lay at 0.2 nM.

In turn, `C[C@H](C(=O)O)[C@H](c1ccc2c(c1)CN(C1CCN(Cc3cc(C(F)(F)F)ccc3C(F)(F)F)CC1)CC2)C1CC1` [Example 1, (2S,3R)-3-(2-(1-(2,5-bis(Trifluoromethyl)benzyl)piperidin-4-yl)-1,2,34-tetrahydroisoquinolin-7-yl)-3-cyclopropyl-2-methylpropanoic acid] displayed an EC50 of 611 nM.

Consider `C[C@H](C(=O)O)[C@H](c1ccc2c(c1)NC(C1CCN(Cc3cc(C(F)(F)F)ccc3C(F)(F)F)CC1)CC2)C1CC1` (single isomer, unassigned) [Example 7, Sodium (2S,3R)-3-((S or R)-2-(1-(2,5-bis(tri-fluoromethyl)-benzyl)-piperidin-4-yl)-1,2,3,4-tetrahydroquin-olin-7-yl)-3-cyclo-propyl-2-methyl propanoate], for which it took 99 nM to reach a half-maximal effect (EC50).

In turn, `COc1ccc(F)c(-c2ccc(C3COc4ccc([C@H](C5CC5)[C@H](C)C(=O)O)cc4N3C)cc2)c1` (single isomer, unassigned) [Example 20, Sodium (2S,3R)-3-cyclopropyl-3-((R or S)-3-(2′-fluoro-5′-methoxy-[1,1′-biphenyl]-4-yl)-4-methyl-3,4-dihydro-2H benzo-[b][1,4]oxazin-6-yl)-2-methyl propanoate] registered an EC50 of 0.8 nM.

In turn, `COc1ccc(F)c(-c2ccc(C3COc4ccc([C@H](C5CC5)[C@H](C)C(=O)O)cc4N3C)cc2)c1` (single isomer, unassigned) [Example 21, Sodium (2S,3R)-3-cyclopropyl-3-((S or R)-3-(2′-fluoro-5′-methoxy-[1,1′-biphenyl]-4-yl)-4-methyl-3,4-dihydro-2H-benzo[b][1,4]oxazin-6-yl)-2-methyl propanoate] registered an EC50 of 12 nM.

`C[C@H](C(=O)O)[C@H](c1ccc2c(c1)N(C)C(C1CCN(Cc3cc(C(F)(F)F)ccc3C(F)(F)F)CC1)CC2)C1CC1` (single isomer, unassigned) [Example 9, (2S,3R)-3-((S or R)-2-(1-(2,5-bis(trifluoromethyl)-benzyl)piperidin-4-yl)-1-methyl-1,2,3,4-tetrahydroquinolin-7-yl)-3-cyclopropyl-2-methyl propanoic acid]: the EC50 was determined as 289 nM.

In the case of `COc1ccc(F)c(-c2ccc(C3COc4ccc([C@H](C5CC5)[C@H](C)C(=O)O)cc4N3)cc2)c1` (single isomer, unassigned) [Example 17, Sodium (2S,3R)-3-cyclopropyl-3-((R or S)-3-(2′-fluoro-5′-methoxy-[1,1′-biphenyl]-4-yl)-3,4-dihydro-2H-benzo[b][1,4]oxazin-6-yl)-2-methyl propanoate], the 50% effective concentration (EC50) was determined as 10 nM.

Turning to `C[C@H](C(=O)O)[C@H](c1ccc2c(c1)N(C)C(C1CCN(Cc3cc(C(F)(F)F)ccc3C(F)(F)F)CC1)CC2)C1CC1` (single isomer, unassigned) [Example 8, (2S,3R)-3-((R or S)-2-(1-(2,5-bis(trifluoromethyl)benzyl)piperidin-4-yl)-1-methyl-1,2,3,4-tetrahydroquinolin-7-yl)-3-cyclopropyl-2-methylpropanoic acid], the EC50 came to 439 nM.

On to `C[C@H](C(=O)O)[C@H](c1ccc2c(c1)NC(C1CCN(Cc3cc(C(F)(F)F)ccc3C(F)(F)F)CC1)CO2)C1CC1` (single isomer, unassigned) [Example 3, Sodium (2S,3R)-methyl 3-((S or R)-3-(1-(2,5-bis(trifluoro-methyl)-benzyl)-piperidin-4-yl)-3,4-dihydro-2H-benzo[b]-[1,4]oxazin-6-yl)-3-cyclopropyl-2-methylpropanoate], for which the concentration giving a half-maximal response (EC50) was 642 nM.

`COc1ccc(F)c(-c2ccc(C3CCc4ccc([C@H](C5CC5)[C@H](C)C(=O)O)cc4N3C)cc2)c1` (single isomer, unassigned) [Example 14, (2S,3R)-3-cyclopropyl-3-((R or S)-2-(2′-fluoro-5′-methoxy-[1,1′-biphenyl]-4-yl)-1-methyl-1,2,3,4-tetrahydroquinolin-7-yl)-2-methylpropanoic acid] yielded an EC50 of 1 nM.

In turn, `COc1ccc(F)c(-c2ccc(C3COc4ccc([C@H](C5CC5)[C@H](C)C(=O)O)cc4N3)cc2)c1` (single isomer, unassigned) [Example 18, Sodium (2S,3R)-3-cyclopropyl-3-((S or R)-3-(2′-fluoro-5′-methoxy-[1,1′-biphenyl]-4-yl)-3,4-dihydro-2H-benzo[b][1,4]oxazin-6-yl)-2-methyl propanoate] had an EC50 of 0.8 nM.

In the case of `C[C@H](C(=O)O)C(c1ccc2c(c1)N(C)C(C1CCN(Cc3cc(C(F)(F)F)ccc3C(F)(F)F)CC1)CO2)C1CC1` (single isomer, unassigned) [Example 4, Sodium (2S,3S)-3-((R or S)-3-(1-(2,5-bis(trifluoromethyl)benzyl)piperidin-4-yl)-4-methyl-3,4-di-hydro-2H-benzo[b][1,4]oxazin-6-yl)-3-cyclopropyl-2-methylpropanoate], the EC50 amounted to 4700 nM.

`C[C@H](C(=O)O)[C@H](c1ccc2c(c1)N(C)C(C1CCN(Cc3cc(C(F)(F)F)ccc3C(F)(F)F)CC1)CO2)C1CC1` (single isomer, unassigned) [Example 5, Sodium (2S,3S)-3-((S or R)-3-(1-(2,5-bis(trifluoro-methyl)-benzyl)piperidin-4-yl)-4-methyl-3,4-dihydro-2H-benzo[b]-[1,4]oxazin-6-yl)-3-cyclopropyl-2-methyl propanoate]: a half-maximal effect (EC50) was put at 2100 nM.

Compound `COc1ccc(F)c(-c2ccc(C3CCc4ccc([C@H](C5CC5)[C@H](C)C(=O)O)cc4N3C)cc2)c1` (single isomer, unassigned) [Example 15, (2S,3R)-3-cyclopropyl-3-((S or R)-2-(2′-fluoro-5′-methoxy-[1,1′-biphenyl]-4-yl)-1-methyl-1,2,3,4-tetrahydroquinolin-7-yl)-2-methylpropanoic acid] yielded an EC50 of 12 nM.

A word on the EC50: it is the concentration at which the effect is half-maximal. High values mean lower potency in that assay, low ones higher potency in that assay.
